Broadly, the AC50 is the concentration at which the activity in the assay is half-maximal. Higher therefore signals activity only at high concentration.

Three compounds from ChEMBL document CHEMBL5291721, “A preclinical secondary pharmacology resource illuminates target-adverse drug reaction associations of marketed drugs” (Nat Commun, 2023) can be followed below.

Assay [1] concerns the target T1, Type-2 angiotensin II receptor (Homo sapiens, UniProt P50052).
T1 sequence (P50052 whole entry): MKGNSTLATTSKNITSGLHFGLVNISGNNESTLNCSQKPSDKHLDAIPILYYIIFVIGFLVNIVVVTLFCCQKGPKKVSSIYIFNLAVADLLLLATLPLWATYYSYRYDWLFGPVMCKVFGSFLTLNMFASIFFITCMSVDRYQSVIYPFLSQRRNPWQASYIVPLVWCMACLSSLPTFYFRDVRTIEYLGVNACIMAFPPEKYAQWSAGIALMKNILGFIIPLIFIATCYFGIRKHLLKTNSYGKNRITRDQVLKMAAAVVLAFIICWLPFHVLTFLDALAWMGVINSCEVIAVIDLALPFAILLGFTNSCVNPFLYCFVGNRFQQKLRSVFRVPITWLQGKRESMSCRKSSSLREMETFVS
Type of assay: functional.

Assay [2] addresses Retinoic acid receptor gamma (Homo sapiens, UniProt P13631). Type of assay: functional, cell-based.
Assay [3] has as its target T2, Peroxisome proliferator-activated receptor alpha (Homo sapiens, UniProt Q07869).
T2 sequence (Q07869 whole entry): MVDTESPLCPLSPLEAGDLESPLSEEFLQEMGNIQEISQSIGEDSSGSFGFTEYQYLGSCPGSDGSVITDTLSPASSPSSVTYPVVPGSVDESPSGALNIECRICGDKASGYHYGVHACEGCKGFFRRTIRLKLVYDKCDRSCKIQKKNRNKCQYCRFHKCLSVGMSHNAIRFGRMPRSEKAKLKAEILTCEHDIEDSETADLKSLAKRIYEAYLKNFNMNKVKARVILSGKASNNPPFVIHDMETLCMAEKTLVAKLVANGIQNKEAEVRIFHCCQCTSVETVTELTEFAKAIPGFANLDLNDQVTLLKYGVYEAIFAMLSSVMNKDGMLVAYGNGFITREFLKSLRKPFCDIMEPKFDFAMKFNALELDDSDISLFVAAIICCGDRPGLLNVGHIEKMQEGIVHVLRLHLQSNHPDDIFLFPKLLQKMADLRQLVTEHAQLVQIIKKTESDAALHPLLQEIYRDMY
Type of assay: functional.

Assay [4] concerns the target T3, Muscarinic acetylcholine receptor M1 (Homo sapiens, UniProt P11229).
T3 sequence (P11229 whole entry): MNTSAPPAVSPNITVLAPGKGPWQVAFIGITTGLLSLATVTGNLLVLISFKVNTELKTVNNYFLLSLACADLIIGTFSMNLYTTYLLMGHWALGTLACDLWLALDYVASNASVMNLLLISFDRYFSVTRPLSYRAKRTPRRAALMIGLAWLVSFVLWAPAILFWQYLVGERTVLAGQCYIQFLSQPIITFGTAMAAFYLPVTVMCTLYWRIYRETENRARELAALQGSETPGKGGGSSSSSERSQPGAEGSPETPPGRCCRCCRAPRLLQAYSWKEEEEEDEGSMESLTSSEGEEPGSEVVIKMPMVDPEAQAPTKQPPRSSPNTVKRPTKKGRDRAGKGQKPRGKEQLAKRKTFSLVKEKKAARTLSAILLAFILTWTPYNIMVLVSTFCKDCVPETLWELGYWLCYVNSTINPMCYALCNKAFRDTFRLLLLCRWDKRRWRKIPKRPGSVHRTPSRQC
Format: functional, cell-based.
Further: assay procedure not described here.

Sequence of Retinoic acid receptor gamma (P13631 whole entry): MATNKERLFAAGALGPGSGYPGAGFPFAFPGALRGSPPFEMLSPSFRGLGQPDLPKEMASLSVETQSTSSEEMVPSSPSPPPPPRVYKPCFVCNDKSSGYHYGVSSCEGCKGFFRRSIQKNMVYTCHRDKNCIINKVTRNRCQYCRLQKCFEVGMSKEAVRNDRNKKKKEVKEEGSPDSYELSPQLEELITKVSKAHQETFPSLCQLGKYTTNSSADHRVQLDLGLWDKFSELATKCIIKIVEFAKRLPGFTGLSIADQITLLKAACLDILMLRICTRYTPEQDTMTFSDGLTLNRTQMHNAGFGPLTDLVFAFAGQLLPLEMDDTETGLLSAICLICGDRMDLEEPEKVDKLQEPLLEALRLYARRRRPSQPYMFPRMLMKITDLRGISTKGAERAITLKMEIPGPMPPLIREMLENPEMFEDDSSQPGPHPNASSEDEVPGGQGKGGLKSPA

Regarding `CCOc1nc2cccc(C(=O)O)c2n1Cc1ccc(-c2ccccc2-c2nnn[nH]2)cc1`, half-maximal activity in assay [1] (AC50) was put at 84.8 µM. This counts as double-digit micromolar.
Consider `COc1cc(C(=O)NS(=O)(=O)c2ccccc2C)ccc1Cc1cn(C)c2ccc(NC(=O)OC3CCCC3)cc12` [ZAFIRLUKAST], for which the AC50 in assay [2] and in assay [3] was over 30 µM throughout.
The compound `O=C1Cc2cc(CCN3CCN(c4nsc5ccccc45)CC3)c(Cl)cc2N1` [ZIPRASIDONE] displayed an AC50 in assay [4] of 20 µM.
